The text below walks through data of patent US8476265B2, “Compounds-801” (AstraZeneca AB, priority 2010, dated 2013).

One assay has as its target T1, Adrenergic β2 (Homo sapiens, UniProt P07550).
T1 construct: Adherent H292 cells are removed from tissue culture flasks by treatment with Accutase™ cell detachment solution; endogenous in cells; host or cells: H292 cells
Put plainly: Adrenergic β2 mediated cAMP production in H292 cells, single concentration 1 μM. The class given is cell-based. As to conditions: NCI-H292, 1 μM compound, cAMP as percentage of the maximum response generated by 1E-07M formoterol, read-out: β2 % effect @1 uM. The procedure, abridged: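 H292 cells pretreated with rolipram (300 μM final) 10 min, then compound at 1 μM final, 1% DMSO, 60 min at room temperature in HBSS/10 mM HEPES pH 7.4/5 mM glucose. Lysate cAMP quantified by AlphaScreen against a standard curve, as % of maximal response to 1E-07M formoterol.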

Assay [1] deals with T2, human muscarinic acetylcholine M3 receptor (Homo sapiens, UniProt P20309).
T2 construct: expressed in transfected cells; host or cells: CHO-K1 (Chinese Hamster Ovary) cell membranes
T2 sequence (P20309 whole entry): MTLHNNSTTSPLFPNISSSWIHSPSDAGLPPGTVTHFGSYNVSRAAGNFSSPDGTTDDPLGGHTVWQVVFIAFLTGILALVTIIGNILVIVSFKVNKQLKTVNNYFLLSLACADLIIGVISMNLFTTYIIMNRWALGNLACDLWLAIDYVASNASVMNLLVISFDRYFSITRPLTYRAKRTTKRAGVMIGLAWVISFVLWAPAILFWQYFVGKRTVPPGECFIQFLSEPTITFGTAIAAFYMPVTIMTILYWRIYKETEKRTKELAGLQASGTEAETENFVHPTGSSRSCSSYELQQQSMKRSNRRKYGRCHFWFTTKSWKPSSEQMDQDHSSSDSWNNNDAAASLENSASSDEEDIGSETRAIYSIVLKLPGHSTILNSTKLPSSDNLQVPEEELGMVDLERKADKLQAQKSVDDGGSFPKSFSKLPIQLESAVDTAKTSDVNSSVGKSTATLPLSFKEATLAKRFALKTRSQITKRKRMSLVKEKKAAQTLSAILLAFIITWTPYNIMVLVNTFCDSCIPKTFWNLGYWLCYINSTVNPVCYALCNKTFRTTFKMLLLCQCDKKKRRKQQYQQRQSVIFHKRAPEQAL
Nature of the assay: Muscarinic 3 receptor binding assay ([3H]NMS competition, SPA), single concentration 1 μM. As to conditions: 1 μM compound; % inhibition specific [3H]-NMS binding. The procedure, abridged: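 CHO-K1 membranes expressing human M3 on SPA beads, competition with 0.1 nM [3H]NMS (quarter Kd) in 20 mM HEPES pH 7.4, 5 mM MgCl2, 0.1% BSA, 1% DMSO; compound at 1 μM. 16 h at room temperature. Value is % inhibition of specific binding, non-specific defined with 1 μM atropine.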

T1 sequence (P07550 whole entry): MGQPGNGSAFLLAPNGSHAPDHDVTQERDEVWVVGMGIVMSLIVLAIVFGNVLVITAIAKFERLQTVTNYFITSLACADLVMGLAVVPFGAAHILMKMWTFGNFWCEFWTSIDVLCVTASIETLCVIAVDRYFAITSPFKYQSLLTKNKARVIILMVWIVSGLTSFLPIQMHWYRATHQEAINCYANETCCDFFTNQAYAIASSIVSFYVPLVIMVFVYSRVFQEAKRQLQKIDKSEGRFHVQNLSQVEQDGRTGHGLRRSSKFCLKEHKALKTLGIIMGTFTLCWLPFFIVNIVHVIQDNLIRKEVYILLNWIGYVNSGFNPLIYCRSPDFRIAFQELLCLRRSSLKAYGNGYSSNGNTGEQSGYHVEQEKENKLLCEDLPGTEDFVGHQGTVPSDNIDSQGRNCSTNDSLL

In the case of `O=C1COc2c(CCNCCN(C(=O)CCOCCc3cccc(CN4CCC5(CC4)CN(C(=O)C(O)C(F)(F)F)CCO5)c3)C3CCCCC3)ccc(O)c2N1` (stereo not drawn) [Example 152, N-Cyclohexyl-N-(2-(2-(5-hydroxy-3-oxo-3,4-dihydro-2H-benzo[b][1,4]oxazin-8-yl)ethylamino)ethyl)-3-(3-((4-(3,3,3-trifluoro-2-hydroxypropanoyl)-1-oxa-4,9-diazaspiro[5.5]undecan-9-yl)methyl)phenethoxy)propanamide], the percent of formoterol maximum response at 1 µM at Adrenergic β2 was 112%. Besides, the inhibition at 1 µM in assay [1] was found to be 100%.
The matching figures for `CCOc1ccccc1C(=O)N1CCOC2(CCN(Cc3cccc(CCOCCC(=O)N(CCNCCc4ccc(O)c5c4OCC(=O)N5)C4CCCCC4)c3)CC2)C1` [Example 111, N-Cyclohexyl-3-(3-((4-(2-ethoxybenzoyl)-1-oxa-4,9-diazaspiro[5.5]undecan-9-yl)methyl)phenethoxy)-N-(2-(2-(5-hydroxy-3-oxo-3,4-dihydro-2H-benzo[b][1,4]oxazin-8-yl)ethylamino)ethyl)propanamide]: 107% and 96%.
The corresponding values for `O=C1COc2c(CCNCCN(C(=O)CCOCCc3cccc(CN4CCC5(CC4)CN(C(=O)c4cnc6ccccc6c4)CCO5)c3)C3CCCCC3)ccc(O)c2N1` [Example 99, N-Cyclohexyl-N-(2-(2-(5-hydroxy-3-oxo-3,4-dihydro-2H-benzo[b][1,4]oxazin-8-yl)ethylamino)ethyl)-3-(3-((4-(quinoline-3-carbonyl)-1-oxa-4,9-diazaspiro[5.5]undecan-9-yl)methyl)phenethoxy)propanamide] are 112% and 99%.
The matching figures for `Cc1ccc2[nH]c(C(=O)N3CCOC4(CCN(Cc5cccc(CCOCCC(=O)N(CCNCCc6ccc(O)c7c6OCC(=O)N7)C6CCCCC6)c5)CC4)C3)cc2c1` [Example 136, N-Cyclohexyl-N-(2-(2-(5-hydroxy-3-oxo-3,4-dihydro-2H-benzo[b][1,4]oxazin-8-yl)ethylamino)ethyl)-3-(3-((4-(5-methyl-1H-indole-2-carbonyl)-1-oxa-4,9-diazaspiro[5.5]undecan-9-yl)methyl)phenethoxy)propanamide]: 92% and 99%.
Turning to `O=C1COc2c(CCNCCN(C(=O)CCOCCc3cccc(CN4CCC5(CC4)CN(C(=O)[C@@H](O)C4CCCCC4)CCO5)c3)C3CCCCC3)ccc(O)c2N1` [Example 129, (S)-N-Cyclohexyl-3-(3-((4-(2-cyclohexyl-2-hydroxyacetyl)-1-oxa-4,9-diazaspiro[5.5]undecan-9-yl)methyl)phenethoxy)-N-(2-(2-(5-hydroxy-3-oxo-3,4-dihydro-2H-benzo[b][1,4]oxazin-8-yl)ethylamino)ethyl)propanamide], at Adrenergic β2, the percent of formoterol maximum response at 1 µM is 110%. The inhibition at 1 µM in assay [1] is 99%.
The matching figures for `O=C1COc2c(CCNCCN(C(=O)CCOCCc3cccc(CN4CCC5(CC4)CN(C(=O)C4(c6ccccc6)CC4)CCO5)c3)C3CCCCC3)ccc(O)c2N1` [Example 113, N-Cyclohexyl-N-(2-(2-(5-hydroxy-3-oxo-3,4-dihydro-2H-benzo[b][1,4]oxazin-8-yl)ethylamino)ethyl)-3-(3-((4-(1-phenylcyclopropanecarbonyl)-1-oxa-4,9-diazaspiro[5.5]undecan-9-yl)methyl)phenethoxy)propanamide]: 112% and 100%.
For the compound `Cc1ccccc1OCC(=O)N1CCOC2(CCN(Cc3cccc(CCOCCC(=O)N(CCNCCc4ccc(O)c5c4OCC(=O)N5)C4CCCCC4)c3)CC2)C1` [Example 127, N-Cyclohexyl-N-(2-(2-(5-hydroxy-3-oxo-3,4-dihydro-2H-benzo[b][1,4]oxazin-8-yl)ethylamino)ethyl)-3-(3-((4-(2-(o-tolyloxy)acetyl)-1-oxa-4,9-diazaspiro[5.5]undecan-9-yl)methyl)phenethoxy)propanamide], the percent of formoterol maximum response at 1 µM at Adrenergic β2 came to 110%. The inhibition at 1 µM in assay [1] worked out at 97%.
The corresponding values for `O=C1COc2c(CCNCCN(C(=O)CCOCCc3cccc(CN4CCC5(CC4)CN(C(=O)c4n[nH]c6ccccc46)CCO5)c3)C3CCCCC3)ccc(O)c2N1` [Example 120, 3-(3-((4-(1H-Indazole-3-carbonyl)-1-oxa-4,9-diazaspiro[5.5]undecan-9-yl)methyl)phenethoxy)-N-cyclohexyl-N-(2-(2-(5-hydroxy-3-oxo-3,4-dihydro-2H-benzo[b][1,4]oxazin-8-yl)ethylamino)ethyl)propanamide] are 97% and 101%.
The corresponding values for `O=C1COc2c(CCNCCN(C(=O)CCOCCc3cccc(CN4CCC5(CC4)CN(C(=O)c4ccc(-n6ccnc6)cc4)CCO5)c3)C3CCCCC3)ccc(O)c2N1` [Example 135, 3-(3-((4-(4-(1H-Imidazol-1-yl)benzoyl)-1-oxa-4,9-diazaspiro[5.5]undecan-9-yl)methyl)phenethoxy)-N-cyclohexyl-N-(2-(2-(5-hydroxy-3-oxo-3,4-dihydro-2H-benzo[b][1,4]oxazin-8-yl)ethylamino)ethyl)propanamide] are 86% and 66%.
The corresponding values for `O=C1COc2c(CCNCCN(C(=O)CCOCCc3cccc(CN4CCC5(CC4)CN(C(=O)Cn4cnc6ccccc64)CCO5)c3)C3CCCCC3)ccc(O)c2N1` [Example 125, 3-(3-((4-(2-(1H-Benzo[d]imidazol-1-yl)acetyl)-1-oxa-4,9-diazaspiro[5.5]undecan-9-yl)methyl)phenethoxy)-N-cyclohexyl-N-(2-(2-(5-hydroxy-3-oxo-3,4-dihydro-2H-benzo[b][1,4]oxazin-8-yl)ethylamino)ethyl)propanamide] are 114% and 93%.
On to `COC1CCCC(C(=O)N2CCOC3(CCN(Cc4cccc(CCOCCC(=O)N(CCNCCc5ccc(O)c6c5OCC(=O)N6)C5CCCCC5)c4)CC3)C2)C1` (stereo not drawn) [Example 114, N-Cyclohexyl-N-(2-(2-(5-hydroxy-3-oxo-3,4-dihydro-2H-benzo[b][1,4]oxazin-8-yl)ethylamino)ethyl)-3-(3-((4-(3-methoxycyclohexanecarbonyl)-1-oxa-4,9-diazaspiro[5.5]undecan-9-yl)methyl)phenethoxy)propanamide], for which the percent of formoterol maximum response at 1 µM at Adrenergic β2 is 106%. The inhibition at 1 µM in assay [1] was 100%.
Consider `O=C1COc2c(CCNCCN(C(=O)CCOCCc3cccc(CN4CCC5(CC4)CN(C(=O)c4ccc(-n6cccn6)nc4)CCO5)c3)C3CCCCC3)ccc(O)c2N1` [Example 112, 3-(3-((4-(6-(1H-Pyrazol-1-yl)nicotinoyl)-1-oxa-4,9-diazaspiro[5.5]undecan-9-yl)methyl)phenethoxy)-N-cyclohexyl-N-(2-(2-(5-hydroxy-3-oxo-3,4-dihydro-2H-benzo[b][1,4]oxazin-8-yl)ethylamino)ethyl)propanamide], for which the percent of formoterol maximum response at 1 µM on Adrenergic β2 turned out to be 105%. In addition, in assay [1], the inhibition at 1 µM is 98%.
